Data from the NIST ThermoML archive (doi:10.1021/acs.jced.5b00367).
± gives the expanded uncertainty stated by the source.

Assay: wn = mass fraction of the nth substance listed
Conditions: 101 kPa, Liquid, Alternating current cell with electrodes, w1 = 0.01

Question: Which electrical conductivity (291.85 K) does the source give for `CCCCCCCCCCCC[N+](CC)(CC)CCCCCCCCCCCC.[Br-]` [didodecyldiethylammonium bromide] + O here?
Answer: 0.00363 ± 0.0014 S/m

Question: And the electrical conductivity (291.95 K)?
Answer: 0.00362 ± 0.0014 S/m

Question: And the electrical conductivity (292.05 K)?
Answer: 0.00364 ± 0.0015 S/m

Question: And the electrical conductivity (292.15 K)?
Answer: 0.00366 ± 0.0015 S/m

Question: What about the electrical conductivity (292.25 K) of the same molecule?
Answer: 0.00366 ± 0.0015 S/m

Question: What about the electrical conductivity (292.35 K) of the same molecule?
Answer: 0.00367 ± 0.0015 S/m

Question: And the electrical conductivity (292.45 K)?
Answer: 0.00362 ± 0.0014 S/m

Question: And the electrical conductivity (292.55 K)?
Answer: 0.00374 ± 0.0015 S/m

Question: What about the electrical conductivity (292.65 K) of the same molecule?
Answer: 0.00369 ± 0.0015 S/m

Question: What about the electrical conductivity (292.75 K) of the same molecule?
Answer: 0.00367 ± 0.0015 S/m

Question: What about the electrical conductivity (292.85 K) of the same molecule?
Answer: 0.00372 ± 0.0015 S/m

Question: What about the electrical conductivity (292.95 K) of the same molecule?
Answer: 0.00369 ± 0.0015 S/m

Question: What about the electrical conductivity (293.05 K) of the same molecule?
Answer: 0.00378 ± 0.0015 S/m

Question: What about the electrical conductivity (293.15 K) of the same molecule?
Answer: 0.00377 ± 0.0015 S/m

Question: And the electrical conductivity (293.25 K)?
Answer: 0.00376 ± 0.0015 S/m

Question: What about the electrical conductivity (293.35 K) of the same molecule?
Answer: 0.00376 ± 0.0015 S/m

Question: And the electrical conductivity (293.45 K)?
Answer: 0.0037 ± 0.0015 S/m

Question: What about the electrical conductivity (293.55 K) of the same molecule?
Answer: 0.00375 ± 0.0015 S/m

Question: And the electrical conductivity (293.65 K)?
Answer: 0.00376 ± 0.0015 S/m

Question: What about the electrical conductivity (293.75 K) of the same molecule?
Answer: 0.00372 ± 0.0015 S/m

Question: What about the electrical conductivity (293.85 K) of the same molecule?
Answer: 0.00383 ± 0.0015 S/m

Question: And the electrical conductivity (293.95 K)?
Answer: 0.00378 ± 0.0015 S/m

Question: What about the electrical conductivity (294.05 K) of the same molecule?
Answer: 0.0038 ± 0.0015 S/m

Question: What about the electrical conductivity (294.15 K) of the same molecule?
Answer: 0.00381 ± 0.0015 S/m

Question: And the electrical conductivity (294.25 K)?
Answer: 0.0038 ± 0.0015 S/m

Question: What about the electrical conductivity (294.35 K) of the same molecule?
Answer: 0.00381 ± 0.0015 S/m

Question: What about the electrical conductivity (294.45 K) of the same molecule?
Answer: 0.00383 ± 0.0015 S/m

Question: And the electrical conductivity (294.55 K)?
Answer: 0.00382 ± 0.0015 S/m

Question: And the electrical conductivity (294.65 K)?
Answer: 0.00384 ± 0.0015 S/m

Question: And the electrical conductivity (294.75 K)?
Answer: 0.00385 ± 0.0015 S/m

Question: What about the electrical conductivity (294.85 K) of the same molecule?
Answer: 0.00386 ± 0.0015 S/m

Question: What about the electrical conductivity (294.95 K) of the same molecule?
Answer: 0.00387 ± 0.0015 S/m

Question: And the electrical conductivity (295.05 K)?
Answer: 0.00389 ± 0.0016 S/m

Question: And the electrical conductivity (295.15 K)?
Answer: 0.00389 ± 0.0016 S/m

Question: What about the electrical conductivity (295.25 K) of the same molecule?
Answer: 0.00386 ± 0.0015 S/m

Question: And the electrical conductivity (295.35 K)?
Answer: 0.00396 ± 0.0016 S/m

Question: What about the electrical conductivity (295.45 K) of the same molecule?
Answer: 0.00395 ± 0.0016 S/m

Question: What about the electrical conductivity (295.55 K) of the same molecule?
Answer: 0.00387 ± 0.0015 S/m

Question: What about the electrical conductivity (295.65 K) of the same molecule?
Answer: 0.00396 ± 0.0016 S/m

Question: What about the electrical conductivity (296.45 K) of the same molecule?
Answer: 0.00389 ± 0.0016 S/m

Question: What about the electrical conductivity (296.55 K) of the same molecule?
Answer: 0.00397 ± 0.0016 S/m

Question: What about the electrical conductivity (296.75 K) of the same molecule?
Answer: 0.00394 ± 0.0016 S/m

Question: What about the electrical conductivity (297.45 K) of the same molecule?
Answer: 0.00396 ± 0.0016 S/m

Question: And the electrical conductivity (297.85 K)?
Answer: 0.00401 ± 0.0016 S/m

Question: And the electrical conductivity (298.15 K)?
Answer: 0.00402 ± 0.0016 S/m

Question: What about the electrical conductivity (298.55 K) of the same molecule?
Answer: 0.00399 ± 0.0016 S/m

Question: And the electrical conductivity (298.75 K)?
Answer: 0.00405 ± 0.0016 S/m

Question: What about the electrical conductivity (298.95 K) of the same molecule?
Answer: 0.00402 ± 0.0016 S/m

Question: What about the electrical conductivity (299.15 K) of the same molecule?
Answer: 0.00407 ± 0.0016 S/m

Question: What about the electrical conductivity (299.55 K) of the same molecule?
Answer: 0.00409 ± 0.0016 S/m

Question: And the electrical conductivity (299.75 K)?
Answer: 0.00406 ± 0.0016 S/m

Question: What about the electrical conductivity (300.05 K) of the same molecule?
Answer: 0.00407 ± 0.0016 S/m

Question: What about the electrical conductivity (300.45 K) of the same molecule?
Answer: 0.00419 ± 0.0017 S/m

Question: What about the electrical conductivity (300.75 K) of the same molecule?
Answer: 0.00428 ± 0.0017 S/m

Question: What about the electrical conductivity (300.95 K) of the same molecule?
Answer: 0.00431 ± 0.0017 S/m

Question: What about the electrical conductivity (301.55 K) of the same molecule?
Answer: 0.00453 ± 0.0018 S/m

Question: What about the electrical conductivity (301.85 K) of the same molecule?
Answer: 0.00472 ± 0.0019 S/m

Question: What about the electrical conductivity (302.15 K) of the same molecule?
Answer: 0.0048 ± 0.0019 S/m

Question: And the electrical conductivity (302.35 K)?
Answer: 0.005 ± 0.002 S/m

Question: And the electrical conductivity (302.75 K)?
Answer: 0.00518 ± 0.0021 S/m

Question: What about the electrical conductivity (303.05 K) of the same molecule?
Answer: 0.00543 ± 0.0022 S/m

Question: And the electrical conductivity (303.45 K)?
Answer: 0.00568 ± 0.0023 S/m

Question: And the electrical conductivity (303.75 K)?
Answer: 0.00609 ± 0.0024 S/m

Question: What about the electrical conductivity (304.55 K) of the same molecule?
Answer: 0.00686 ± 0.0027 S/m

Question: And the electrical conductivity (304.85 K)?
Answer: 0.00713 ± 0.0029 S/m

Question: What about the electrical conductivity (305.15 K) of the same molecule?
Answer: 0.00765 ± 0.0031 S/m

Question: And the electrical conductivity (305.55 K)?
Answer: 0.00812 ± 0.0032 S/m

Question: And the electrical conductivity (305.85 K)?
Answer: 0.00833 ± 0.0034 S/m

Question: And the electrical conductivity (306.05 K)?
Answer: 0.00891 ± 0.0036 S/m

Question: And the electrical conductivity (306.35 K)?
Answer: 0.00946 ± 0.0039 S/m

Question: And the electrical conductivity (307.35 K)?
Answer: 0.0136 ± 0.0055 S/m

Question: And the electrical conductivity (307.55 K)?
Answer: 0.0157 ± 0.0063 S/m

Question: What about the electrical conductivity (307.95 K) of the same molecule?
Answer: 0.016 ± 0.0064 S/m

Question: And the electrical conductivity (308.25 K)?
Answer: 0.0159 ± 0.0063 S/m

Question: What about the electrical conductivity (308.35 K) of the same molecule?
Answer: 0.016 ± 0.0064 S/m

Question: What about the electrical conductivity (308.75 K) of the same molecule?
Answer: 0.0162 ± 0.0065 S/m

Question: What about the electrical conductivity (308.95 K) of the same molecule?
Answer: 0.0165 ± 0.0066 S/m

Question: What about the electrical conductivity (309.25 K) of the same molecule?
Answer: 0.0167 ± 0.0067 S/m

Question: What about the electrical conductivity (309.75 K) of the same molecule?
Answer: 0.0169 ± 0.0067 S/m

Question: And the electrical conductivity (310.05 K)?
Answer: 0.0171 ± 0.0069 S/m

Question: What about the electrical conductivity (310.15 K) of the same molecule?
Answer: 0.0172 ± 0.0069 S/m

Question: What about the electrical conductivity (310.45 K) of the same molecule?
Answer: 0.0175 ± 0.007 S/m

Question: What about the electrical conductivity (310.65 K) of the same molecule?
Answer: 0.0177 ± 0.0071 S/m

Question: And the electrical conductivity (310.85 K)?
Answer: 0.0179 ± 0.0072 S/m

Question: And the electrical conductivity (311.05 K)?
Answer: 0.018 ± 0.0072 S/m

Question: What about the electrical conductivity (311.25 K) of the same molecule?
Answer: 0.0181 ± 0.0073 S/m

Question: What about the electrical conductivity (311.45 K) of the same molecule?
Answer: 0.0183 ± 0.0073 S/m

Question: And the electrical conductivity (311.65 K)?
Answer: 0.0184 ± 0.0074 S/m

Question: And the electrical conductivity (311.75 K)?
Answer: 0.0185 ± 0.0074 S/m

Question: And the electrical conductivity (311.85 K)?
Answer: 0.0187 ± 0.0075 S/m

Question: What about the electrical conductivity (311.95 K) of the same molecule?
Answer: 0.0188 ± 0.0075 S/m

Question: And the electrical conductivity (312.15 K)?
Answer: 0.0189 ± 0.0076 S/m

Question: What about the electrical conductivity (312.35 K) of the same molecule?
Answer: 0.0192 ± 0.0077 S/m

Question: What about the electrical conductivity (312.55 K) of the same molecule?
Answer: 0.0194 ± 0.0077 S/m

Question: And the electrical conductivity (312.65 K)?
Answer: 0.0194 ± 0.0077 S/m

Question: And the electrical conductivity (312.85 K)?
Answer: 0.0196 ± 0.0078 S/m

Question: What about the electrical conductivity (312.95 K) of the same molecule?
Answer: 0.0196 ± 0.0078 S/m

Question: What about the electrical conductivity (313.35 K) of the same molecule?
Answer: 0.0201 ± 0.008 S/m

Question: What about the electrical conductivity (313.65 K) of the same molecule?
Answer: 0.0204 ± 0.0082 S/m

Question: What about the electrical conductivity (313.85 K) of the same molecule?
Answer: 0.0205 ± 0.0082 S/m

Question: What about the electrical conductivity (313.95 K) of the same molecule?
Answer: 0.0207 ± 0.0083 S/m

Question: What about the electrical conductivity (314.05 K) of the same molecule?
Answer: 0.0208 ± 0.0083 S/m

Question: And the electrical conductivity (314.15 K)?
Answer: 0.0209 ± 0.0084 S/m

Question: What about the electrical conductivity (314.35 K) of the same molecule?
Answer: 0.021 ± 0.0084 S/m

Question: What about the electrical conductivity (314.45 K) of the same molecule?
Answer: 0.0212 ± 0.0085 S/m

Question: What about the electrical conductivity (314.65 K) of the same molecule?
Answer: 0.0213 ± 0.0085 S/m

Question: And the electrical conductivity (314.75 K)?
Answer: 0.0214 ± 0.0086 S/m

Question: And the electrical conductivity (314.85 K)?
Answer: 0.0216 ± 0.0086 S/m

Question: What about the electrical conductivity (314.95 K) of the same molecule?
Answer: 0.0217 ± 0.0087 S/m

Question: And the electrical conductivity (315.05 K)?
Answer: 0.0218 ± 0.0087 S/m

Question: What about the electrical conductivity (315.15 K) of the same molecule?
Answer: 0.0219 ± 0.0088 S/m

Question: What about the electrical conductivity (315.25 K) of the same molecule?
Answer: 0.022 ± 0.0088 S/m

Question: And the electrical conductivity (315.35 K)?
Answer: 0.0222 ± 0.0089 S/m
